# Key:
# [1] = test system: α7+/− myotubes; assay: Quantification of myotube hypertrophy; type: cell-based, mouse
# Experimental: α7^+/− myogenic cells were cultured on 1% gelatin-coated plastic plates in Ham's F-10 growth medium (20% FBS, 0.5% chick embryo extract, 5 ng/ml bFGF, 2 mM glutamine, 100 U/ml penicillin and 100 μg/ml streptomycin). After six passages, cells were grown in DMEM containing 20% FBS, 0.5% chick embryo extract, 2 mM glutamine, 100 U/ml penicillin and 100 μg/ml streptomycin. Differentiation was induced by switching the medium to DMEM containing 2% horse serum and antibiotics when cells attained 90% confluence. After 48 hours of differentiation, 2 mM VPA was added and supplied fresh every 24 hours. Wortmannin was used at 100 nM and added fresh every 24 hours.
# […] The cells were stained with anti-myosin heavy chain antibody (MF-20, 1:3 in 1% BSA in PBS) and FITC-conjugated donkey anti-mouse secondary antibody (1:200 in 1% BSA in PBS) for 1 hour each, and mounted in Vectashield with DAPI (Vector Laboratories, Burlingame, Calif.). Micrographs of ten fields were taken for VPA-treated and control myotubes using a Leica DMRXA2 microscope (Leica Microsystems, Germany), AxioCam digital camera (Zeiss Inc., Thorwood, N.Y.) and Openlab software (Improvision, Lexington, Mass.). Areas of myosin heavy chain positive myotubes were measured using Openlab software and the numbers of nuclei in each myotube were counted.
# To test whether Akt activation by VPA in α7^+/− myotubes is dependent on PI3K, α7^+/− cells were differentiated for 48 hours and treated for 72 hours with 2 mM VPA with or without 100 nM Wortmannin. Fresh drugs were added every 24 hours. Phase-contrast micrographs of the cultures were captured at the end of 72 hours of treatment. To determine status of Akt activation in the cultures, α7^+/− myotubes were treated as above and protein extracts were made at the end of 72 hours of treatment using a 2% Triton X-100 extraction buffer (see below). Immunoblotting for phospho- and total Akt were done as detailed below.
# [2] = test system: dyw mouse model of MDC1A; assay: VPA in the dyw mouse model of MDC1A (predicted); type: in vivo
# Experimental: In particular, the effect of VPA on MDC1A is determined by using the dyw mouse model of MDC1A. VPA (60 mg/kg or 240 mg/kg body weight) is administered i.p. daily to male dyw mice (n=11 each, as determined by Power analysis with α=0.05, p=0.8 and r=0.5) for 6 weeks starting at 10 days of age. Daily body weights are noted and mice observed for signs of overt toxicity. Control mice of each genotype will be injected with the same volumes of sterile saline. At the end of the course of injections, mice are sacrificed and the gastrocnemius-soleus, quadriceps, heart and diaphragm harvested. Tissues are sectioned on a Leica CM 1850 cryostat to 10 μm. Hematoxylin-eosin staining is performed on the sections. The effect of VPA on the Akt pathway, fibrosis, apoptosis and/or fiber-diameter variation in skeletal muscle of dyw mice is determined by methods known to those of ordinary skill in the art including, but not limited to those described below.
# As muscle fiber-diameter variation is a pathological feature in MDC1A muscle, it can be determined if treatment with VPA restores this parameter in dyw mice. Using image analysis software, muscle-fiber diameters are calculated in at least 500 fibers per mouse in both the VPA and control treated groups. […] Data is analyzed by ANOVA and a p-value of <0.05 is considered statistically significant.
# To quantify fibrosis in muscles, western blotting is performed on muscle extracts using an antibody against collagen VI (Santa Cruz Biotechnology, Santa Cruz, Calif.). Protein extracts are made from muscles as reported (Gurpur et al., 2009) and the Bradford assay is done to determine protein concentrations. Western blotting is carried out using 1:1000 dilution of the anti-collagen VI antibody. The blots are re-probed with an antibody against tubulin to ensure equal protein loading. Band intensities are quantified using the LiCor Odyssey software (LiCor Biosciences, Lincoln, Neb.). Ratio of the collagen VI to tubulin band-intensities is calculated. […] Data is analyzed by ANOVA and a p-value of <0.05 is considered statistically significant.
# Muscle fiber loss due to apoptosis is a significant problem in MDC1A patients. To determine if VPA treatment decreases apoptosis in dyw muscle, after the course of injections, mice are sacrificed and the gastrocnemius-soleus, quadriceps and diaphragm harvested. Tissues are sectioned on a Leica CM 1850 cryostat to 10 μm. The DeadEnd fluorometric TUNEL assay kit (Promega, Madison, Wis.) is used as per the manufacturer's instructions to label apoptotic nuclei in the cryosections. The total number of nuclei (DAPI labeled, fluorescing blue) and the apoptotic nuclei (fluorescing green) are counted in 15 random fields for each muscle, for each mouse. The proportion of apoptotic nuclei is quantified and compared between the VPA injected and control mice. […] Data is analyzed by ANOVA and a p-value of <0.05 is considered statistically significant.
# VPA is administered to male dyw mice (n=11 each) daily for 6 weeks with 80 mg/kg or 240 mg/kg body weight of VPA starting at 10 days of age. Daily body weights are noted and mice are observed for signs of overt toxicity. Control mice are injected with the same volumes of sterile saline.
# After the course of injections, mice are sacrificed and the gastrocnemius-soleus, quadriceps and diaphragm harvested. Protein extracts are made from the muscles as reported (Gurpur et al., 2009). […]
structure (smiles),measurement,setting,value
"CCCC(CCC)C(=O)O [VPA, valproic acid]",number of nuclei per myotube compared to untreated controls,[1]; 2 mM VPA,greater numbers of nuclei per myotube
same,"myotube area per nucleus, greater than control","[1]; 2 mM VPA, 72 hours",1.6 fold
same,myotube size compared to controls (micrographs),"[1]; 2 mM VPA, 72 hours",larger compared to controls
same,myotube size compared to controls after 1 hour exposure,"[1]; 30 mM VPA for 1 hour, observed 72 hours later",larger compared to controls
same,Akt pathway in skeletal muscle of dyw mice,[2],activates the Akt pathway
same,apoptosis in skeletal muscle of dyw mice,[2],inhibiting apoptosis
same,fiber-diameter variation in skeletal muscle of dyw mice,[2],decreasing fiber-diameter variation
same,fibrosis in skeletal muscle of dyw mice,[2],decreasing fibrosis
same,pathology in dyw mice,[2],ameliorate pathology

# Reference: patent US20120003191A1, “VALPROIC ACID, DERIVATIVES, ANALOGUES, AND COMPOSITIONS INCLUDING SAME AND METHODS FOR THEIR THERAPEUTIC USE” (priority 2009, published 2012)
